Read-outs that look alike come from different tables or passages of the source.
How the values were obtained:
Assay type in all cases: biochemical
CDK2/CCNE1 = CDK2/CCNE1 (Homo sapiens, UniProt P24941); assay: CDK2 homogeneous time-resolved fluorescence (HTRF) kinase assay; conditions: CDK2/CCNE
Method in brief: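 TR-FRET read-out (665 nm, or 665/615 ratio) of Eu-antibody detection of phospho-4E-BP1 (Thr37/46) ULight peptide. Enzyme 3 nM, ATP 1 mM, peptide 50 nM, 1% DMSO; 60 min reaction at 23 °C after 20 min compound preincubation. IC50 from 11-point half-log titrations, top typically 10 μM.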

CDK1/CCNB1 = CDK1/CCNB1 (Homo sapiens, UniProt P06493); assay: CDK1 homogeneous time-resolved fluorescence (HTRF) kinase assay; conditions: CDK1/CCNB
Method in brief: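 Kinase activity is measured as Lance signal (665 nm, or 665/615 nm ratio) from europium-labelled anti-phospho-Thr37/46 antibody binding ULight-4E-BP1 peptide. Reactions contain 0.5 nM enzyme, 1 mM ATP, 1% DMSO and run 60 min at 23 °C before EDTA quench.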

CDK4/CCND3 = CDK4/CCND3 (Homo sapiens, UniProt P11802); assay: CDK4 homogeneous time-resolved fluorescence (HTRF) kinase assay; conditions: CDK4/CCND
Method in brief: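 IC50s derive from Lance 665 nm or 665/615 nm signals in 11-point, half-log dose series (top 10 μM, 1% DMSO). The enzyme, 1.5 nM CDK4/CCND3, phosphorylates 50 nM ULight-4E-BP1 peptide with 1 mM ATP over 60 min at 23 °C.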

CDK6/CCND1 = CDK6/CCND1 (Homo sapiens, UniProt Q00534); assay: CDK6 homogeneous time-resolved fluorescence (HTRF) kinase assay; conditions: CDK6/CCND
Method in brief: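 Assay conditions: HEPES buffer containing 10 mM MgCl2, 1 mM EGTA, 2 mM DTT, 0.01% Tween 20; 1 nM CDK6/CCND1, 50 nM peptide substrate, 1 mM ATP. Detection after 60 min reaction used 2 nM europium antibody with 340 nm excitation. Potency fitted from half-log series, 11 points.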

[1] = x = IC50 25-250 nM, read-out: CDK2/CCNE IC50 (25-250 nM)
[2] = x = IC50 >250 nM, read-out: CDK1/CCNB IC50 (>250 nM column)
[3] = x = IC50 >250 nM, read-out: CDK4/CCND IC50 (>250 nM column)
[4] = x = IC50 >250 nM, read-out: CDK6/CCND IC50 (>250 nM column)
[5] = 25-250 nM marked x, read-out: CDK2/CCNE IC50 25-250 nM
[6] = 25-250 nM marked x, read-out: CDK1/CCNB IC50 25-250 nM
[7] = 25-250 nM marked x, read-out: CDK4/CCND IC50 25-250 nM
[8] = 25-250 nM marked x, read-out: CDK6/CCND IC50 25-250 nM
[9] = <25 nM, read-out: CDK2/CCNE IC50, <25 nM
[10] = >250 nM, read-out: CDK1/CCNB IC50 >250 nM
[11] = >250 nM, read-out: CDK4/CCND IC50, >250 nM
[12] = >250 nM, 1 mM ATP, read-out: CDK6/CCND IC50, >250 nM
[13] = <25 nM, read-out: CDK2/CCNE IC50 <25 nM
[14] = >250 nM marked x, read-out: CDK1/CCNB IC50 >250 nM
[15] = >250 nM marked x, read-out: CDK4/CCND IC50 >250 nM
[16] = >250 nM marked x, read-out: CDK6/CCND IC50 >250 nM
[17] = x = IC50 <25 nM, read-out: CDK2/CCNE IC50 (<25 nM)

Sequence of CDK1/CCNB1 (P06493 whole entry): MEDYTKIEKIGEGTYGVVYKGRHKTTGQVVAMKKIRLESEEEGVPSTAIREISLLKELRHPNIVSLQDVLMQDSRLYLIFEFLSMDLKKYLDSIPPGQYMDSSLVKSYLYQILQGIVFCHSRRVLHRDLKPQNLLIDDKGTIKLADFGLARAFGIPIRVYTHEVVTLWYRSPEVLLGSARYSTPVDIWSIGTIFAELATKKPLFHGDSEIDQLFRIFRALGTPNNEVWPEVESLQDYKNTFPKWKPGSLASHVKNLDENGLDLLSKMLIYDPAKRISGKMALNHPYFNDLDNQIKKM
Sequence of CDK1/CCNB1 (P14635 whole entry partner): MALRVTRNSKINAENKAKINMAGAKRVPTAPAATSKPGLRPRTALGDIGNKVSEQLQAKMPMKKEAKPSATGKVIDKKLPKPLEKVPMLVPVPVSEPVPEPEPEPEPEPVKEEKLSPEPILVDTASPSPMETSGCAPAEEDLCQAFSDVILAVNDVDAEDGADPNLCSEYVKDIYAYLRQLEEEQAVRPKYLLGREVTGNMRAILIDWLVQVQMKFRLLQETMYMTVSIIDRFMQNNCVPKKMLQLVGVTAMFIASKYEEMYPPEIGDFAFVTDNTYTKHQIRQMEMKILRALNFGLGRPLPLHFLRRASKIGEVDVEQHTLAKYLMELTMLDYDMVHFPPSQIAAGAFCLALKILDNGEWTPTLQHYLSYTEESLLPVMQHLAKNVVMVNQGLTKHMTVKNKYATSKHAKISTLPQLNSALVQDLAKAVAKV
Sequence of CDK6/CCND1 (Q00534 whole entry): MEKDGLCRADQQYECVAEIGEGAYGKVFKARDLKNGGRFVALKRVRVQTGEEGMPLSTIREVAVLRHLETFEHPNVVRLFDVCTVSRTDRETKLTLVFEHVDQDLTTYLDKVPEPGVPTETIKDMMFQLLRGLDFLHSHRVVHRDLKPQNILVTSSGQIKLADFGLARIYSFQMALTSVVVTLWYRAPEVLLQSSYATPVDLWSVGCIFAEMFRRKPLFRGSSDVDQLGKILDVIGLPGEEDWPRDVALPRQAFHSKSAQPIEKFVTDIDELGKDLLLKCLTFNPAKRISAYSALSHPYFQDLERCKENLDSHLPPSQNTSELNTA
Sequence of CDK6/CCND1 (P24385 whole entry partner): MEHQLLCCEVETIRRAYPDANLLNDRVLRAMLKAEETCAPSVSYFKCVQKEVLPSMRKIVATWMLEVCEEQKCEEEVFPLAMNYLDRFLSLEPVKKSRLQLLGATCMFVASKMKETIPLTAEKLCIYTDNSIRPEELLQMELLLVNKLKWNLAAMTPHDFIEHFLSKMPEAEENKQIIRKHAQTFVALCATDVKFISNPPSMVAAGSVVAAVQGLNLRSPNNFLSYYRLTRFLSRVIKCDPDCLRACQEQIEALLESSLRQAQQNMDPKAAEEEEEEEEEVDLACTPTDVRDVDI
Sequence of CDK4/CCND3 (P11802 whole entry): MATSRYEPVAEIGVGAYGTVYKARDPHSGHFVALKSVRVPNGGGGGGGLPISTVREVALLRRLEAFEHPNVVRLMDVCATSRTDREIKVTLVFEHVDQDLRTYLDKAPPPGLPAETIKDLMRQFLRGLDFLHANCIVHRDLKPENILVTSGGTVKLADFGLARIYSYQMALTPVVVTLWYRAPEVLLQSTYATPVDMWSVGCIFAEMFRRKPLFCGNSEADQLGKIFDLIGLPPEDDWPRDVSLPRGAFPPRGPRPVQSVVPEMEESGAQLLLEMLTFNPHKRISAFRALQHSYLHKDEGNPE
Sequence of CDK4/CCND3 (P30281 whole entry partner): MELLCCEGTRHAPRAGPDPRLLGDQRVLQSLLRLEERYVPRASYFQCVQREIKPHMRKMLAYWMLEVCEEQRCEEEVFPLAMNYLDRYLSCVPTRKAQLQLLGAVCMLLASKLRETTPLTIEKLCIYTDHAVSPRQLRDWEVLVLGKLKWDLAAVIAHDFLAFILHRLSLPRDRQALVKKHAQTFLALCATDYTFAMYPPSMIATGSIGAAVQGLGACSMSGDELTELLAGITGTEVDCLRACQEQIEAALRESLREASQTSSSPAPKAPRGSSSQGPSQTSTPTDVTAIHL

Compound: Cc1cnc(F)cc1C#Cc1nccc2cnc(Nc3ccc(S(C)(=O)=O)cc3)cc12 [Ex 509, 5-((2-fluoro-5-methylpyridin-4-yl)ethynyl)-N-(4-(methylsulfonyl)phenyl)-2,6-naphthyridin-3-amine]
- IC50 (CDK2/CCNE1; [1]): 0.025 to 0.25 µM
- IC50 (CDK1/CCNB1; [2]): > 0.25 µM
- IC50 (CDK4/CCND3; [3]): > 0.25 µM
- IC50 (CDK6/CCND1; [4]): > 0.25 µM

Compound: CN(CCO)C(=O)c1nccc2cnc(NC3CCN(S(C)(=O)=O)CC3)cc12 [Ex 96, N-(2-hydroxyethyl)-N-methyl-7-((1-(methylsulfonyl)piperidin-4-yl)amino)-2,6-naphthyridine-1-carboxamide]
- IC50 (CDK2/CCNE1; [5]): 0.025 to 0.25 µM
- IC50 (CDK1/CCNB1; [6]): 0.025 to 0.25 µM
- IC50 (CDK4/CCND3; [7]): 0.025 to 0.25 µM
- IC50 (CDK6/CCND1; [8]): 0.025 to 0.25 µM

Compound: Cc1c(-c2nccc3cnc(Nc4ccc(S(=O)(=O)Nc5cc(C(F)(F)F)ccn5)cc4)cc23)ccc2c1cnn2CC(C)(C)O [Ex 816, 4-((5-(1-(2-hydroxy-2-methylpropyl)-4-methyl-1H-indazol-5-yl)-2,6-naphthyridin-3-yl)amino)-N-(4-(trifluoromethyl)pyridin-2-yl)benzenesulfonamide]
- IC50 (CDK2/CCNE1; [9]): < 0.025 µM
- IC50 (CDK1/CCNB1; [10]): > 0.25 µM
- IC50 (CDK4/CCND3; [11]): > 0.25 µM
- IC50 (CDK6/CCND1; [12]): > 0.25 µM

Compound: Cc1nc(-c2ccc(S(=O)(=O)Nc3ccc(Nc4cc5c(-c6ccc7c(cnn7CC(C)(C)O)c6C)nccc5cn4)cc3)s2)cs1 [Ex 782, N-(4-((5-(1-(2-hydroxy-2-methylpropyl)-4-methyl-1H-indazol-5-yl)-2,6-naphthyridin-3-yl)amino)phenyl)-5-(2-methylthiazol-4-yl)thiophene-2-sulfonamide]
- IC50 (CDK2/CCNE1; >250 nM, read-out: CDK2/CCNE IC50, >250 nM): > 0.25 µM
- IC50 (CDK1/CCNB1; [10]): > 0.25 µM
- IC50 (CDK4/CCND3; [11]): > 0.25 µM
- IC50 (CDK6/CCND1; [12]): > 0.25 µM

Compound: COC(=O)[C@H]1CC[C@H](C#Cc2nccc3cnc(Nc4ccc(S(C)(=O)=O)cc4)cc23)CC1 [Ex 213, methyl (1r,4r)-4-((7-((4-(methylsulfonyl)phenyl)amino)-2,6-naphthyridin-1-yl)ethynyl)cyclohexane-1-carboxylate]
- IC50 (CDK2/CCNE1; [13]): < 0.025 µM
- IC50 (CDK1/CCNB1; [14]): > 0.25 µM
- IC50 (CDK4/CCND3; [7]): 0.025 to 0.25 µM
- IC50 (CDK6/CCND1; [8]): 0.025 to 0.25 µM

Compound: CS(=O)(=O)N1CCC(Nc2cc3c(N4CCC(O)C4)nccc3cn2)CC1 (racemic) [Ex 26, 1-(7-((1-(methylsulfonyl)piperidin-4-yl)amino)-2,6-naphthyridin-1-yl)pyrrolidin-3-ol]
- IC50 (CDK2/CCNE1; [13]): < 0.025 µM
- IC50 (CDK1/CCNB1; [14]): > 0.25 µM
- IC50 (CDK4/CCND3; [7]): 0.025 to 0.25 µM
- IC50 (CDK6/CCND1; [8]): 0.025 to 0.25 µM

Compound: CS(=O)(=O)c1ccc(Nc2cc3c(C#CC4CCC(C#N)CC4)nccc3cn2)cc1 (racemic) [Ex 252, 4-((7-((4-(methylsulfonyl)phenyl)amino)-2,6-naphthyridin-1-yl)ethynyl)cyclohexane-1-carbonitrile]
- IC50 (CDK2/CCNE1; [13]): < 0.025 µM
- IC50 (CDK1/CCNB1; [14]): > 0.25 µM
- IC50 (CDK4/CCND3; [7]): 0.025 to 0.25 µM
- IC50 (CDK6/CCND1; [8]): 0.025 to 0.25 µM

Compound: C#Cc1nccc2cnc(Nc3ccc(S(C)(=O)=O)cc3)cc12 [Ex 124, 5-ethynyl-N-(4-(methylsulfonyl)phenyl)-2,6-naphthyridin-3-amine]
- IC50 (CDK2/CCNE1; [5]): 0.025 to 0.25 µM
- IC50 (CDK1/CCNB1; [14]): > 0.25 µM
- IC50 (CDK4/CCND3; [15]): > 0.25 µM
- IC50 (CDK6/CCND1; [16]): > 0.25 µM

Compound: COc1cc(S(C)(=O)=O)ccc1Nc1cc2c(C#Cc3ccc4c(c3)NC(=O)C4(C)C)nccc2cn1 [Ex 440, 6-((7-((2-methoxy-4-(methylsulfonyl)phenyl)amino)-2,6-naphthyridin-1-yl)ethynyl)-3,3-dimethylindolin-2-one]
- IC50 (CDK2/CCNE1; [17]): < 0.025 µM
- IC50 (CDK1/CCNB1; [2]): > 0.25 µM
- IC50 (CDK4/CCND3; [3]): > 0.25 µM
- IC50 (CDK6/CCND1; [4]): > 0.25 µM

Compound: Cc1c(-c2nccc3cnc(Nc4ccc(S(=O)(=O)Nc5ncccn5)cc4)cc23)ccc2c1cnn2CC(C)(C)O [Ex 927, 4-((5-(1-(2-hydroxy-2-methylpropyl)-4-methyl-1H-indazol-5-yl)-2,6-naphthyridin-3-yl)amino)-N-(pyrimidin-2-yl)benzenesulfonamide]
- IC50 (CDK2/CCNE1; [9]): < 0.025 µM
- IC50 (CDK1/CCNB1; [10]): > 0.25 µM
- IC50 (CDK4/CCND3; [11]): > 0.25 µM
- IC50 (CDK6/CCND1; [12]): > 0.25 µM

Compound: Cc1cnc(C#Cc2nccc3cnc(Nc4ccc(S(C)(=O)=O)cc4)cc23)cn1 [Ex 507, 5-((5-methylpyrazin-2-yl)ethynyl)-N-(4-(methylsulfonyl)phenyl)-2,6-naphthyridin-3-amine]
- IC50 (CDK2/CCNE1; x = IC50 >250 nM, read-out: CDK2/CCNE IC50 (>250 nM column)): > 0.25 µM
- IC50 (CDK1/CCNB1; [2]): > 0.25 µM
- IC50 (CDK4/CCND3; [3]): > 0.25 µM
- IC50 (CDK6/CCND1; [4]): > 0.25 µM

Compound: C=Cc1c(-c2nccc3cnc(Nc4ccc(S(C)(=O)=O)cc4)cc23)ccc2[nH]ncc12 [Example 641, N-(4-(methylsulfonyl)phenyl)-5-(4-vinyl-1H-indazol-5-yl)-2,6-naphthyridin-3-amine]
- IC50 (CDK2/CCNE1; [1]): 0.025 to 0.25 µM
- IC50 (CDK1/CCNB1; [2]): > 0.25 µM
- IC50 (CDK4/CCND3; [3]): > 0.25 µM
- IC50 (CDK6/CCND1; [4]): > 0.25 µM

Compound: N=S(=O)(c1ccc(Nc2cc3c(C#Cc4cnc5c(c4)NC(=O)CO5)nccc3cn2)cc1)C1CCC1 (stereo not shown) [Example 686, 7-((7-((4-(cyclobutanesulfonimidoyl)phenyl)amino)-2,6-naphthyridin-1-yl)ethynyl)-1H-pyrido[2,3-b][1,4]oxazin-2(3H)-one]
- IC50 (CDK2/CCNE1; [9]): < 0.025 µM
- IC50 (CDK1/CCNB1; [10]): > 0.25 µM
- IC50 (CDK4/CCND3; 25-250 nM, read-out: CDK4/CCND IC50, 25-250 nM): 0.025 to 0.25 µM
- IC50 (CDK6/CCND1; 25-250 nM, 1 mM ATP, read-out: CDK6/CCND IC50, 25-250 nM): 0.025 to 0.25 µM

Compound: CS(=O)(=O)c1ccc(Nc2cc3c(C#Cc4ccncc4N)nccc3cn2)cc1 [Ex 572, 5-((3-aminopyridin-4-yl)ethynyl)-N-(4-(methylsulfonyl)phenyl)-2,6-naphthyridin-3-amine]
- IC50 (CDK2/CCNE1; [17]): < 0.025 µM
- IC50 (CDK1/CCNB1; [2]): > 0.25 µM
- IC50 (CDK4/CCND3; [3]): > 0.25 µM
- IC50 (CDK6/CCND1; [4]): > 0.25 µM

Compound: CS(=O)(=O)Nc1ccc(Nc2cc3c(C#Cc4ccc(C#N)cc4)nccc3cn2)cc1 [Ex 940, N-(4-((5-((4-cyanophenyl)ethynyl)-2,6-naphthyridin-3-yl)amino)phenyl)methanesulfonamide]
- IC50 (CDK2/CCNE1; 25-250 nM, read-out: CDK2/CCNE IC50, 25-250 nM): 0.025 to 0.25 µM
- IC50 (CDK1/CCNB1; [10]): > 0.25 µM
- IC50 (CDK4/CCND3; [11]): > 0.25 µM
- IC50 (CDK6/CCND1; [12]): > 0.25 µM

Compound: Cc1nn(C)c(C)c1S(=O)(=O)Nc1ccc(Nc2cc3c(-c4ccc5c(cnn5CC(C)(C)O)c4C)nccc3cn2)cc1 [Ex 830, N-(4-((5-(1-(2-hydroxy-2-methylpropyl)-4-methyl-1H-indazol-5-yl)-2,6-naphthyridin-3-yl)amino)phenyl)-1,3,5-trimethyl-1H-pyrazole-4-sulfonamide]
- IC50 (CDK2/CCNE1; [9]): < 0.025 µM
- IC50 (CDK1/CCNB1; [10]): > 0.25 µM
- IC50 (CDK4/CCND3; [11]): > 0.25 µM
- IC50 (CDK6/CCND1; [12]): > 0.25 µM

Compound: CS(=O)(=O)c1ccc(Nc2cc3c(ccnc3[C@H]3CC[C@H](C(=O)Nc4ccccc4)CC3)cn2)cc1 [Ex 202, (1r,4r)-4-(7-((4-(methylsulfonyl)phenyl)amino)-2,6-naphthyridin-1-yl)-N-phenylcyclohexane-1-carboxamide]
- IC50 (CDK2/CCNE1; [5]): 0.025 to 0.25 µM
- IC50 (CDK1/CCNB1; [14]): > 0.25 µM
- IC50 (CDK4/CCND3; [15]): > 0.25 µM
- IC50 (CDK6/CCND1; [16]): > 0.25 µM

Compound: COc1ccnc(NS(=O)(=O)c2ccc(Nc3cc4c(-c5ccc6c(cnn6CC(O)(C(F)(F)F)C(F)(F)F)c5C)nccc4cn3)cc2)n1 [Ex 737, N-(4-methoxypyrimidin-2-yl)-4-((5-(4-methyl-1-(3,3,3-trifluoro-2-hydroxy-2-(trifluoromethyl)propyl)-1H-indazol-5-yl)-2,6-naphthyridin-3-yl)amino)benzenesulfonamide]
- IC50 (CDK2/CCNE1; [9]): < 0.025 µM
- IC50 (CDK1/CCNB1; [10]): > 0.25 µM
- IC50 (CDK4/CCND3; [11]): > 0.25 µM
- IC50 (CDK6/CCND1; [12]): > 0.25 µM

Compound: C=CS(=O)(=O)N1CCC(Nc2cc3c(N4CCCCC4)nccc3cn2)CC1 [Example 3, 5-(piperidin-1-yl)-N-(1-(vinylsulfonyl)piperidin-4-yl)-2,6-naphthyridin-3-amine]
- IC50 (CDK2/CCNE1; [13]): < 0.025 µM
- IC50 (CDK1/CCNB1; [6]): 0.025 to 0.25 µM
- IC50 (CDK4/CCND3; [7]): 0.025 to 0.25 µM
- IC50 (CDK6/CCND1; [8]): 0.025 to 0.25 µM
